Assay results from patent publication US20240252650A1, “LIPID COMPOUNDS AND LIPID NANOPARTICLE COMPOSITIONS” (SUZHOU ABOGEN BIOSCIENCES CO., LTD., priority 2021, published 2024).

What was measured:
[1] = Lipid nanoparticle size and polydispersity by dynamic light scattering (Malvern Zetasizer Nano ZS); type: physicochemical; conditions: LNP: cationic lipid/DSPC/cholesterol/PEG-lipid 50:10:38.5:1.5, mRNA; table of Example 15
Description: (§1) Briefly, a cationic lipid provided herein, DSPC, cholesterol, and PEG-lipid were solubilized in ethanol at a molar ratio of 50:10:38.5:1.5, and mRNA were diluted in 10 to 50 mM citrate buffer, pH=4. The LNPs were prepared at a total lipid to mRNA weight ratio of approximately 10:1 to 30:1 by mixing the ethanolic lipid solution with the aqueous mRNA solution at a volume ratio of 1:3 using a microfluidic apparatus, total flow rate ranging from 9-30 mL/min. Ethanol were thereby removed and replaced by DPBS using dialysis. Finally, the lipid nanoparticles were filtered through a 0.2 μm sterile filter.
(§2) Lipid nanoparticle size were determined by dynamic light scattering using a Malvern Zetasizer Nano ZS (Malvern UK) using a 173° backscatter detection mode. The encapsulation efficiency of lipid nanoparticles were determined using a Quant-it Ribogreen RNA quantification assay kit (Thermo Fisher Scientific, UK) according to the manufacturer's instructions.

[2] = Encapsulation efficiency of lipid nanoparticles (Quant-it Ribogreen RNA quantification assay); type: physicochemical; conditions: LNP: cationic lipid/DSPC/cholesterol/PEG-lipid 50:10:38.5:1.5, mRNA; table of Example 15
Description: as §1, §2

[3] = Apparent pKa of LNP formulations by TNS fluorescence assay; type: physicochemical; conditions: LNP cationic lipid/DSPC/cholesterol/DMG-PEG 50/10/38.5/1.5 mol %, table of Example 15
Description: As reported in literature, the apparent pKa of LNP formulations correlates with the delivery efficiency of LNPs for nucleic acids in vivo. The apparent pKa of each formulation was determined using an assay based on fluorescence of 2-(p-toluidino)-6-napthalene sulfonic acid (TNS). LNP formulations comprising of cationic lipid/DSPC/cholesterol/DMG-PEG (50/10/38.5/1.5 mol %) in PBS were prepared as described above. TNS was prepared as a 300 uM stock solution in distilled water. LNP formulations were diluted to 0.1 mg/ml total lipid in 3 mL of buffered solutions containing 50 mM sodium citrate, 50 mM sodium phosphate, 50 mM sodium borate, and 30 mM sodium chloride where the pH ranged from 3 to 9. An aliquot of the TNS solution was added to give a final concentration of 0.1 mg/ml and following vortex mixing fluorescence intensity was measured at room temperature in a Molecular Devices Spectramax iD3 spectrometer using excitation and mission wavelengths of 325 nm and 435 nm. A sigmoidal best fit analysis was applied to the fluorescence data and the pKa value was measured as the pH giving rise to half-maximal fluorescent intensity.

female Balb/c mice = test: Animal study: LNPs encapsulating luciferase mRNA, tail vein injection, organ bioluminescence imaging (IVIS Spectrum CT); type: in vivo; conditions: luciferase mRNA LNP, 0.25 mg/kg tail vein; for bone marrow* Avg Radiance: bone marrow at 6 h; for brain* Avg Radiance: dissected brain at 6 h; for heart* Avg Radiance: dissected heart at 6 h; for kidney* Avg Radiance: dissected kidney at 6 h; for liver* Avg Radiance: dissected liver at 6 h; for lung* Avg Radiance: dissected lung at 6 h; for spleen* Avg Radiance: dissected spleen at 6 h; for luciferase expression in bone marrow (in words): 6 h
Description: Lipid nanoparticles comprising certain compounds provided herein encapsulating luciferase encoding (luciferase) mRNA were systemically administered to 6-8 week old female Balb/c mice (Charles River Lab, ZheJiang) at 0.25 mg/kg dose by tail vein injection, and mice blood were sampled at specific time points (e.g., 6 hours) post administration. Optical imaging was performed using the IVIS Spectrum CT device (PerkinElmer Inc., Paris, France). The luminescence level was evaluated by an ROI applied to the injection site zone (Living Image software, PerkinElmer Inc., Paris, France).
Radiance of heart, liver, spleen, lung, kidney, brain and bone marrow were taken at 6 h. Dissected organs were placed on a black sheet and imaged with IVIS Spectrum CT (PerkinElmer, Hopkinton, MA). To quantify bioluminescence emission signal, identical regions of interest (ROI) were positioned to encircle each organ region, the imaging signal was quantitated as average radiance (photons/s/cm2/steradian).

SMILES | polydispersity [1] | size (nm) [1] [nm] | Encapsulation Efficiency [2] [%] | Apparant Pka [3] | bone marrow* Avg Radiance (female Balb/c mice) | brain* Avg Radiance (female Balb/c mice) | heart* Avg Radiance (female Balb/c mice) | kidney* Avg Radiance (female Balb/c mice) | liver* Avg Radiance (female Balb/c mice) | lung* Avg Radiance (female Balb/c mice) | spleen* Avg Radiance (female Balb/c mice) | luciferase expression in bone marrow (in words) (female Balb/c mice)
CCCCC/C=C\C/C=C\CCCCCCCC(=O)OCC(COC(=O)CCCCN(CCO)C1CCC1)COC(=O)CCC(OCCCCCCCC)OCCCCCCCC (stereo not drawn) [Compound 116] | 0.049 | 78.48 | 92.40 | 6.881 | −0.16 E+04 p/s/cm^2/sr | 13.52 E+04 p/s/cm^2/sr | 12.65 E+04 p/s/cm^2/sr | 28.62 E+04 p/s/cm^2/sr | 40.56 E+06 p/s/cm^2/sr | 17.29 E+04 p/s/cm^2/sr | 1.38 E+06 p/s/cm^2/sr | –
CCCCC/C=C\C/C=C\CCCCCCCC(=O)OCC(COC(=O)CCCCCCC/C=C\C/C=C\CCCCC)COC(=O)CCCCCCCN(CCO)C1CCC1 [Compound 124] | 0.078 | 90.89 | 90.85 | 7.1 | 2.2 E+04 p/s/cm^2/sr | 16.34 E+04 p/s/cm^2/sr | 32.73 E+04 p/s/cm^2/sr | 34.36 E+04 p/s/cm^2/sr | 47.09 E+06 p/s/cm^2/sr | 16.04 E+04 p/s/cm^2/sr | 11.21 E+06 p/s/cm^2/sr | mild expression
CCCCC/C=C\C/C=C\CCCCCCCC(=O)OCC(COC(=O)CCCCN(CCOCCO)C1CCC1)COC(=O)CCCC(COC(=O)CCCCCCC)COC(=O)CCCCCCC (stereo not drawn) [Compound 125] | 0.025 | 83.81 | 87.71 | 6.863 | −0.94 E+04 p/s/cm^2/sr | 4.61 E+04 p/s/cm^2/sr | 5.27 E+04 p/s/cm^2/sr | 8.4 E+04 p/s/cm^2/sr | 16.61 E+06 p/s/cm^2/sr | 7.67 E+04 p/s/cm^2/sr | 2.24 E+06 p/s/cm^2/sr | –
CCCCC/C=C\C/C=C\CCCCCCCC(=O)OCC(COC(=O)CCC(OCCCCCCCC)OCCCCCCCC)COC(=O)OCCCN(CCO)C1CCCCC1 (stereo not drawn) [Compound 126] | 0.039 | 71.38 | 91.87 | 6.154 | −1.44 E+04 p/s/cm^2/sr | 10.48 E+04 p/s/cm^2/sr | 23.71 E+04 p/s/cm^2/sr | 29.29 E+04 p/s/cm^2/sr | 54.3 E+06 p/s/cm^2/sr | 15.58 E+04 p/s/cm^2/sr | 0.73 E+06 p/s/cm^2/sr | –
CCCCC/C=C\C/C=C\CCCCCCCC(=O)OCC(COC(=O)CCCC(COC(=O)CCCCCCC)COC(=O)CCCCCCC)COC(=O)OCCCN(CCOCCO)C1CCC1 (stereo not drawn) [Compound 127] | 0.037 | 87.99 | 85.39 | 6.398 | 0.95 E+04 p/s/cm^2/sr | 3.91 E+04 p/s/cm^2/sr | 4.33 E+04 p/s/cm^2/sr | 10.77 E+04 p/s/cm^2/sr | 13.01 E+06 p/s/cm^2/sr | 9.38 E+04 p/s/cm^2/sr | 4.76 E+06 p/s/cm^2/sr | mild expression
